Assay [1] can be described thus: Inhibition of gp120 in HIV-1 AD8 infected in dog Cf2Th-CD4/CCR5 cells assessed as inhibition of viral entry incubated for 30 mins prior to infection and further incubated for 48 to 72 hrs in presence of firefly D-luciferin free acid and ATP by single-round infection luciferase assay.
The nature of assay [2]: Inhibition of gp120 in HIV-1 pseudotyped with A-MLV envelop glycoprotein infected in dog Cf2Th-CD4/CCR5 cells assessed as inhibition of viral entry incubated for 30 mins prior to infection and further incubated for 48 to 72 hrs in presence of firefly D-luciferin free acid and ATP by single-round infection luciferase assay.
A short description of assay [3]: Inhibition of gp120 in HIV-1 191084 infected in dog Cf2Th-CD4/CCR5 cells assessed as inhibition of viral entry incubated for 30 mins prior to infection and further incubated for 48 to 72 hrs in presence of firefly D-luciferin free acid and ATP by single-round infection luciferase assay.
A short description of assay [4]: Inhibition of gp120 in HIV-1 A4 infected in dog Cf2Th-CD4/CCR5 cells assessed as inhibition of viral entry incubated for 30 mins prior to infection and further incubated for 48 to 72 hrs in presence of firefly D-luciferin free acid and ATP by single-round infection luciferase assay.

Each structure is given as a SMILES string.

With `C=CCC[C@@H]1c2cc(CNC)ccc2[C@H](NC(=O)C(=O)Nc2ccc(Cl)c(F)c2)[C@H]1CNC(=N)N`, the concentration for half-maximal inhibition (IC50) was 7.4 µM in assay [1] and over 300 µM in assay [2].
The like results for `CNCc1ccc2c(c1)[C@@H](CCCO)[C@H](CNC(=N)N)[C@H]2NC(=O)C(=O)Nc1ccc(Cl)c(F)c1` were, in that order, 7.7 µM and over 300 µM.
As for `CNCc1ccc2c(c1)[C@@H](CCC(O)CO)[C@H](CNC(=N)N)[C@H]2NC(=O)C(=O)Nc1ccc(Cl)c(F)c1` (some centres undefined), the IC50 was 20.6 µM in assay [3], 3.32 µM in assay [1], 98.9 µM in assay [4] and over 300 µM in assay [2].
As for `CNCc1ccc2c(c1)[C@@H](CCC(=O)CO)[C@H](CNC(=N)N)[C@H]2NC(=O)C(=O)Nc1ccc(Cl)c(F)c1`, the IC50 in assay [1] was 3.35 µM; in assay [2], over 100 µM.
The like results for `[H]/N=C(/N)NC[C@H]1[C@H](CC[C@H](O)CO)c2cc(CNC)ccc2[C@@H]1NC(=O)C(=O)Nc1ccc(Cl)c(F)c1` were, in that order, 0.91 µM and over 300 µM.
The like results for `[H]/N=C(/N)NC[C@H]1[C@H](CC[C@@H](O)CO)c2cc(CNC)ccc2[C@@H]1NC(=O)C(=O)Nc1ccc(Cl)c(F)c1` were, in that order, 1.6 µM and over 300 µM.
In the same order, the values of `CNCc1ccc2c(c1)[C@H](NC(=O)C(=O)Nc1ccc(Cl)c(F)c1)[C@@H](CNC(=N)N)[C@@H]2CCCO` are 2.05 µM and over 300 µM.
As for `CNCc1ccc2c(c1)[C@H](NC(=O)C(=O)Nc1ccc(Cl)c(F)c1)[C@@H](CNC(=N)N)[C@@H]2CCC(O)CO` (some centres undefined), the IC50 in assay [1] is 0.96 µM; in assay [2] it was over 300 µM.
In the same order, the values of `CNCc1ccc2c(c1)[C@H](NC(=O)C(=O)Nc1ccc(Cl)c(F)c1)[C@@H](CNC(=N)N)[C@@H]2CC[C@H](O)CO` are 2.22 µM and over 300 µM.
For the molecule `CCCC[C@@H]1c2cc(CNC)ccc2[C@H](NC(=O)C(=O)Nc2ccc(Cl)c(F)c2)[C@H]1CNC(=N)N`, the 50% inhibitory concentration (IC50) in assay [2] is over 100 µM.
On the same count and under the same terms, under `C=CCC[C@@H]1c2ccc(CNC)cc2[C@H](NC(=O)C(=O)Nc2ccc(Cl)c(F)c2)[C@H]1CNC(=N)N` stands over 300 µM.
Regarding `[H]/N=C(/N)NC[C@H]1Cc2cc(CNC)ccc2[C@@H]1NC(=O)C(=O)Nc1ccc(Cl)c(F)c1`, the IC50 in assay [3] was 95.9 µM; in assay [4] it was 200 µM.

These data come from BindingDB's records for doi:10.1021/acsmedchemlett.1c00437 (University of Pennsylvania, 2021).
